From patent US20260284016A1, “COMBINATIONS AND METHODS FOR ENHANCING CHECKPOINT INHIBITOR THERAPIES IN CANCER TREATMENT” (PURDUE RESEARCH FOUNDATION, priority 2004, published 2026)

Columns and labels:
[1] = test system: M2-induced THP-1 macrophages; assay: Secreted CCL18 and IL-1β in THP-1 supernatants by ELISA; format: cell-based, human; conditions: low concentration range (0.1-10 nM), ELISA
Protocol: FIGS. 6A-6D show graphical data representative of various marker levels measured from M2-induced THP-1 macrophages treated with different concentrations of drugs for 48 hours (FIGS. 6A and 6B) or for 2 hours, then displaced with fresh medium and cultured for the remaining 46 hours (FIGS. 6C and 6D). In both cases, cell supernatants were collected and secreted CCL18 protein and IL-1β was detected by ELISA.
Further, to ensure that the above mRNA analyses accurately reflected the levels of anti-inflammatory cytokines produced by IL-4, IL-6 plus IL-13 stimulated THP-1 cells, the concentrations of CCL18 and IL-1β polypeptides in the THP-1 supernatants were quantitated by ELISA assay.
CCL18 and IL-1β were quantified in induced THP-1 cell supernatants using a human DuoSet ELISA Development System (R&D Systems Europe, Abingdon, UK: #DY394-05) and an IL-1 beta Human ELISA Kit (Thermo Fisher Scientific, Waltham, MA; #BMS224-2) as described by manufactures. BALF samples were analyzed for mouse IFN-γ using ELISA MAX™ Deluxe (Biolegend, San Diego, CA; #430804).
Additionally, cell supernatants were collected and secreted CCL18 protein was detected by ELISA.

[2] = test system: M2-induced THP-1 macrophages; assay: Reprogramming of M2-polarized THP-1 macrophages, marker mRNA by qPCR; format: cell-based, human; conditions: 2 hours with compound, qPCR
Protocol: THP-1 cells were seeded into 96-well plates at a density of 60,000 cells/well. Cells were differentiated into unpolarized macrophages by 48 hours incubation with 200 nM PMA followed by 24 hours incubation in fresh RPMI medium. […] Cultures were maintained at 37° C., in a humidified 5% CO2 incubator.
Total RNA was isolated from 1×10^5-2×10^5 macrophages using a Quick-RNA™ MicroPrep kit (Zymo Research, Irvine, CA) according to the manufacturer-recommended protocol. The RNA samples were then reverse-transcribed into cDNA using high-capacity cDNA reverse transcription kits (Applied Biosystems, Foster City, CA; #4368814), qPCR analyses were performed using the iTaq™ Universal SYBR Green SuperMix (Bio-Rad Laboratories GmbH, Hercules, CA; #1725121), iCycler thermocycler, and iCycler iQ 3.0 software (Bio-Rad Laboratories GmbH, Hercules, CA) to track the expression of markers characteristic of macrophage polarization states, IL-6, CXCL10, IFNα, IFN-γ and CD86 were used as markers for an M1 phenotype, while CCL18. CD206, CD163 and Arg1 were employed as markers for the M2 phenotype, IL-1β, PDGFβ, MMP9 and TIMP 3 were measured as indicators of an anti-inflammatory phenotype. IRAK-4 was used as an indicator of TLR7 stimulation. To control for specificity of the amplification products, a melting curve analysis was performed. […] Each sample was analyzed independently in triplicate for each marker.
In both data sets, the cells were harvested for gene analysis by qPCR.
Primarily, human monocytic (THP-1) cells were induced to the M2-like phenotype using the methods and materials previously described. In particular, THP-1 cells were seeded into 96-well plates at a density of 60,000 cells/well. Cells were differentiated into unpolarized macrophages by 48 h incubation with 200 nM PMA followed by 24 hours incubation in fresh RPMI medium. The resulting macrophages were polarized to an M2-like phenotype by incubation with […] IL-4, 20 ng/ml […], and 5 ng/mL IL-6 for 48h. Cultures were maintained at 37° C. in a humidified 5% CO2 incubator.
In addition to the nonconjugated TLR7 agonist, conjugated compounds of the present disclosure were likewise evaluated. Human THP-1 cells were induced to macrophages having the M2-like phenotype per the methods set forth herein (e.g., using 20 ng/mL IL-4, 20 ng/mL IL-13, 5 ng/mL IL-6), then reprogrammed with different nM concentrations of various compounds of the present disclosure for 2 hours; namely, a nonconjugated (free drug) TLR7 agonist compound having formula I and/or II (data shown collectively as Compound 3A), a folate-conjugated TLR7 agonist compound having formula XV (having a releasable linker) (e.g., Compound 3B), a folate-conjugated TLR7 agonist compound having formula XVII (having a non-releasable linker) (e.g., Compound 3C), and a folate-conjugated TLR7 agonist compound having formula XVI (having a non-releasable linker) (e.g., Compound 3D). The cells were subsequently harvested for gene analysis by qPCR and the relative expression of CCL18 (FIG. 14A), CD206 (FIG. 14B), and IL-1β (FIG. 14C) analyzed.

FRβ positive macrophages = assay: In vivo folate receptor labeling with OTL38, flow cytometry of digested lungs; set-up: species or system C57BL/6 mice; conditions: fibrotic mice
Protocol: (§1) To evaluate if anti-inflammatory lung macrophages in these mice can be specifically targeted with folate-linked drugs, 10 days after the instillation, 10 nmol (for in vivo imaging) or 100 nmol (for in vivo labeling) of a folate-linked, near infrared fluorescent dye (OTL38) with or without 200-fold excess of FA-glucosamine (a competitor of OTL38) was injected into the tail veins of BM-treated mice and the dye uptake in the major organs was evaluated.
Finally, for the in vivo folate imaging studies, major organs (heart, lung, spleen, liver, small intestine, large intestine, and kidney) were resected and imaged using an AMI live imager (Spectral Instruments Imaging, Tucson, AZ). For in vivo folate receptor labeling studies, lungs of the mice were harvested immediately following euthanasia, digested with a lung dissociation kit (Miltenyi Biotec, Bergisch Gladbach, DE; #130-098-427) as described by gentleMACS Octo Dissociator with Heathers (Miltenyi Biotec, Bergisch Gladbach, DE; #130-096-427) as described by manual and filtered through a 70 μm cell strainer (Miltenyi Biotec, Bergisch Gladbach, DE: #130-098-462). […] Labeled macrophages were then washed twice in PBS, stained with 7AAD (viability stain) for 15 min and analyzed by flow cytometry using BD Accuri C6 Software (BD Biosciences, San Jose, CA). […]

[3] = test system: FRβ-expressing macrophages; assay: In vivo folate imaging with OTL38, resected organs; set-up: species or system C57BL/6 mice
Protocol: as §1
Finally, for the in vivo folate imaging studies, major organs (heart, lung, spleen, liver, small intestine, large intestine, and kidney) were resected and imaged using an AMI live imager (Spectral Instruments Imaging, Tucson, AZ). For in vivo folate receptor labeling studies, lungs of the mice were harvested immediately following euthanasia, digested with a lung dissociation kit (Miltenyi Biotec, Bergisch Gladbach, DE; #130-098-427) as described by gentleMACS Octo Dissociator with Heathers (Miltenyi Biotec, Bergisch Gladbach, DE; #130-096-427) as described by manual and filtered through a 70 μm cell strainer (Miltenyi Biotec, Bergisch Gladbach, DE: #130-098-462). Cells collected in the filtrate were depleted of erythrocytes by ammonium […] lysis, washed 2× in cold PBS and labeled for 30 min on ice with antibodies to desired macrophage markers (FITC-CD11b, Biolegend, San Diego, CA; #101205; FE-F4/80. Biolegend. San Diego, CA: #123109). Labeled macrophages were then washed twice in PBS, stained with 7AAD (viability stain) for 15 min and analyzed by flow cytometry using BD Accuri C6 Software (BD Biosciences, San Jose, CA).
FIGS. 7C and 7D show FRβ IHC staining of human IPF lung tissue (FIG. 7C) and healthy human lung tissue (FIG. 7D). […] After 2 hours, mice were sacrificed prior to analysis. […] For in vivo folate receptor labeling studies, lungs of the mice were harvested immediately following euthanasia, digested and then labeled with antibodies to desired macrophages markers (FITC-CD11b, PE-F4/80) and 7AAD (live/dead staining) and analyzed by flow cytometry.

BM-induced mice = test system: BM-induced mice
Protocol: Studies were also performed to determine if macrophages in pulmonary fibrotic lungs might be specifically targeted with folate-linked drugs in vivo. […] (The BM model is widely regarded to be helpful in terms of enabling mechanistic investigations relevant to fibrogenesis in an in vivo context.)
More specifically, eight-week-old C57BL6 male mice from Charles River (average weight 22 g to 25 g) were housed under pathogen-free conditions at room temperature (22° C.) under a 12 hours light-dark cycle. Mice were placed on a folate deficient chow (Envigo Teklad Global Rat Food Pellets) for 1 week prior to the BM or PBS instillation. Fresh water and folate-deficient diet were freely available. All animal procedures were approved by the Purdue Animal Care and Use Committee in accordance with National Institute of Health guidelines.
Thereafter, the mice were anesthetized with ketamine/xylazine and the necks of the mice were shaved using hair remover lotion and then sterilized with 70% alcohol. A small incision was made on the neck to visualize the trachea. Mice were positioned at a 75-degree angle and injected intratracheally with 100 μL sterile PBS or BM (Cayman Chemicals, Ann Arbor, MI; #13877) dissolved in PBS (0.75 mg/kg) using a 1 cc syringe with 26 G needle. Body weights were monitored every other day throughout the experiment.
Lobes of the right lung collected above were weighed, placed in a pressure-tight vial (Supelco Inc., Bellefonte, PA; #27003), and hydrolyzed with 6N HCl (10 ml/g, v/w) in a sand bath at 120° C., for 3.5 hours. The hydrolyzed solution was cooled at 4° C., for 15 min and transferred to a 1.5 ml Eppendorf tube prior to centrifugation at 12,000 rcf for 15 min at 4° C. Supernatant was carefully collected, aliquoted and used for hydroxyproline (HYP) analysis.
For the subsequent HYP analysis, 10 μl of sample was transferred into a 96-well plate and neutralized with 10 μl of 5.3 M sodium hydroxide solution. Isopropanol ([…]) was then added to each well followed by 20 μl of oxidation buffer and the mixture was incubated on a shaker at room temperature for 5 min. Analytical reagent (260 μl) was added, and the plate was incubated on a shaker at room temperature for 30 seconds and incubated immediately at 60° C., for 25 min. The absorbance was measured at 560 nm (A560) within 15 min. All reagents were prepared according to a previously reported protocol.
For histological analysis of the lung sections, fixed lungs (see above) were embedded in paraffin, sectioned and stained with hematoxylin-eosin (H&E), Masson's trichrome or F3 (anti-mouse FRβ antibody). Tissue sections were examined in a blinded manner by a licensed pathologist. More than 90×10^6 cells were quantified per section using Aperio-Image Scope (Leica Biosystems, Wetzlar, DE).
For this, BM-treated mice were intravenously injected every other day beginning on day 10 with either vehicle (3% DMSO in PBS) or Compound 1B (see FIG. 8A). […] In BM-induced experimental pulmonary fibrosis in mice, inflammation is known to persist for about 9-10 days after BM installation. Because, inflammation to fibrosis switch happens in this model approximately day 9 to day 14, and anti-inflammatory markers start appearing at about day 10, dosing began on day 10 (FIG. 8A).
Two doses were given every other day till day 21. The individual doses on a day are separated by 6 hours to prevent any “tolerance” to TLR agonists. Mice were then sacrificed on day 21 and subjected immediately to bronchoalveolar lavage followed by resection of the lungs for immunohistochemistry and quantitation of collagen and hydroxyproline.

Molecule | secretion of CCL18 protein [1] | CCL18 relative expression [2] | CD206 relative expression [2] | IL-1β relative expression [2] | reduction of anti-inflammatory markers relative to the other compounds [2] | other results
Nc1nc2ncc(CNc3ccc(C(=O)NC(CCC(=O)N[C@@H](CSSCCOC(=O)OCC4CCCN(CCNc5ccc(Cn6c(=O)[nH]c7c(N)nc(C(F)(F)F)cc76)cn5)C4)C(=O)O)C(=O)O)cc3)nc2c(=O)[nH]1 (stereo partly drawn) [Compound 3B] | downregulated | reduced | reduced | reduced |  | 
OTL38 |  |  |  |  |  | macrophage-like cells with folate-targeted dye retention (FRβ positive macrophages; 100 nmol OTL38): about 22%; folate-dye retention under competition (FRβ positive macrophages; 100 nmol OTL38 with 200-fold excess folate-glucosamine): blocked essentially all folate-dye retention; OTL38 accumulation in organs ([3]; BM-treated mice, day 10, 10 nmol tail vein, 2 h): pronounced accumulation in the fibrotic lungs; lung accumulation under competition ([3]; BM-treated mice, with 200-fold excess folate-glucosamine): nearly quantitative blockade of lung accumulation; OTL38 fluorescence in organs ([3]; healthy mice, 10 nmol tail vein, 2 h): only observed in the kidneys of healthy mice
Nc1nc(C(F)(F)F)cc2c1[nH]c(=O)n2Cc1ccc(NCCN2CCCC(CO)C2)nc1 (stereo not drawn) [Compound 3A] | downregulated |  |  |  |  | 
Nc1nc2ncc(CNc3ccc(C(=O)N[C@@H](CCC(=O)NCCOCCOCCOCCOCC4CCCN(CCNc5ccc(Cn6c(=O)[nH]c7c(N)nc(C(F)(F)F)cc76)cn5)C4)C(=O)O)cc3)nc2c(=O)[nH]1 (stereo partly drawn) [Compound 3D] | downregulated | reduced | reduced | reduced | most effective | 
Nc1nc2ncc(CNc3ccc(C(=O)N[C@@H](CCC(=O)NCCOCCOCCOCCOCCOCCOCCOCCOCCOCCOCCOCCOCCOCC4CCCN(CCNc5ccc(Cn6c(=O)[nH]c7c(N)nc(C(F)(F)F)cc76)cn5)C4)C(=O)O)cc3)nc2c(=O)[nH]1 (stereo partly drawn) [Compound 3C] | downregulated | reduced | reduced | reduced | most effective | benefit to the subject mice (BM-induced mice; 3 nmol dosage): did not show measurable benefit; hydroxyproline (HP) (BM-induced mice; 10 nmol dosage): decreasing; number of BALF cells (BM-induced mice; 10 nmol dosage): decreasing; survival rates (BM-induced mice; 10 nmol dosage): increased the survival rates
